pIC50, pKd: −log10 of the molar value. Where a SMILES comes first, the peptide text is derived from it. The star is where a group is joined. X1 = O=C(O)c1ccc2c(c1)nc(OCCCCCCCCC(=O)*)c1ccncc12
Legend:
[1] = target: Testis-specific serine/threonine-protein kinase 1 (Homo sapiens) (UniProt Q9BXA7); test: Inhibition of human TSSK1 assessed as residual activity at 1 uM in presence of [33P]ATP by filter binding assay relative to control
[2] = target: Aurora kinase A (Homo sapiens) (UniProt O14965); test: Inhibition of human Aurora A assessed as residual activity at 1 uM in presence of [33P]ATP by filter binding assay relative to control
[3] = target: Serine/threonine-protein kinase PAK 6 (Homo sapiens) (UniProt Q9NQU5); test: Inhibition of human PAK6 assessed as residual activity at 1 uM in presence of [33P]ATP by filter binding assay relative to control
[4] = target: Glycogen synthase kinase-3 beta (Homo sapiens) (UniProt P49841); test: Inhibition of human GSK3beta assessed as residual activity at 1 uM in presence of 33P-ATP by filter-binding assay relative to control
[5] = target: Proto-oncogene tyrosine-protein kinase Src (Homo sapiens) (UniProt P12931); test: Inhibition of human Src assessed as residual activity at 1 uM in presence of [33P]ATP by filter binding assay relative to control
[6] = target: Serine/threonine-protein kinase BRSK2 (Homo sapiens) (UniProt Q8IWQ3); test: Inhibition of human BRSK2 assessed as residual activity at 1 uM in presence of [33P]ATP by filter binding assay relative to control
[7] = target: Ribosomal protein S6 kinase alpha-5 (Homo sapiens) (UniProt O75582); test: Inhibition of human MSK1 assessed as residual activity at 1 uM in presence of 33P-ATP by filter-binding assay relative to control
[8] = target: Serine/threonine-protein kinase SIK3 (Homo sapiens) (UniProt Q9Y2K2); test: Inhibition of human SIK3 assessed as residual activity at 1 uM in presence of [33P]ATP by filter binding assay relative to control
[9] = target: Mitogen-activated protein kinase kinase kinase kinase 5 (Homo sapiens) (UniProt Q9Y4K4); test: Inhibition of human MAP4K5 assessed as residual activity at 1 uM in presence of [33P]ATP by filter binding assay relative to control
[10] = target: Serine/threonine-protein kinase PLK1 (Homo sapiens) (UniProt P53350); test: Inhibition of human PLK1 assessed as residual activity at 1 uM in presence of 33P-ATP by filter-binding assay relative to control
[11] = target: MAP kinase-activated protein kinase 2 (Homo sapiens) (UniProt P49137); test: Inhibition of human MAPKAP-K2 assessed as residual activity at 1 uM in presence of [33P]ATP by filter binding assay relative to control
[12] = target: Serine/threonine-protein kinase pim-2 (Homo sapiens) (UniProt Q9P1W9); test: Inhibition of human PIM2 assessed as residual activity at 1 uM in presence of [33P]ATP by filter binding assay relative to control
[13] = target: MAP kinase-interacting serine/threonine-protein kinase 2 (Homo sapiens) (UniProt Q9HBH9); test: Inhibition of human MNK2 assessed as residual activity at 1 uM in presence of [33P]ATP by filter binding assay relative to control
[14] = target: High affinity nerve growth factor receptor (Homo sapiens) (UniProt P04629); test: Inhibition of human TrkA assessed as residual activity at 1 uM in presence of [33P]ATP by filter binding assay relative to control
[15] = target: Ephrin type-B receptor 1 (Homo sapiens) (UniProt P54762); test: Inhibition of human EPHB1 assessed as residual activity at 1 uM in presence of [33P]ATP by filter binding assay relative to control
[16] = target: Ephrin type-B receptor 3 (Homo sapiens) (UniProt P54753); test: Inhibition of human EPHB3 assessed as residual activity at 1 uM in presence of 33P-ATP by filter-binding assay relative to control
[17] = target: Mitogen-activated protein kinase 7 (Homo sapiens) (UniProt Q13164); test: Inhibition of human ERK5 assessed as residual activity at 1 uM in presence of 33P-ATP by filter-binding assay relative to control
[18] = target: Tau-tubulin kinase 2 (Homo sapiens) (UniProt Q6IQ55); test: Inhibition of human TTBK2 assessed as residual activity at 1 uM in presence of [33P]ATP by filter binding assay relative to control
[19] = target: T1, Casein kinase II subunit alpha (Homo sapiens, UniProt P68400); test: Inhibition of CK2alpha (unknown origin) (1 to 335 residues) using 5-TAMRA-RADDSDDDDD as substrate after 30 mins by fluorescence imaging method
[20] = target: Casein kinase I isoform gamma-2 (Homo sapiens) (UniProt P78368); test: Inhibition of human CK1gamma2 assessed as residual activity at 1 uM in presence of [33P]ATP by filter binding assay relative to control
[21] = target: Myosin light chain kinase, smooth muscle (Homo sapiens) (UniProt Q15746); test: Inhibition of human SmMLCK assessed as residual activity at 1 uM in presence of [33P]ATP by filter binding assay relative to control
[22] = target: Ribosomal protein S6 kinase alpha-1 (Homo sapiens) (UniProt Q15418); test: Inhibition of human RSK1 assessed as residual activity at 1 uM in presence of 33P-ATP by filter-binding assay relative to control
[23] = target: Mitogen-activated protein kinase 15 (Homo sapiens) (UniProt Q8TD08); test: Inhibition of human ERK8 assessed as residual activity at 1 uM in presence of 33P-ATP by filter-binding assay relative to control
[24] = target: Serine/threonine-protein kinase Chk1 (Homo sapiens) (UniProt O14757); test: Inhibition of human CHK1 assessed as residual activity at 1 uM in presence of [33P]ATP by filter binding assay relative to control
[25] = target: Serine/threonine-protein kinase MARK1 (Homo sapiens) (UniProt Q9P0L2); test: Inhibition of human MARK1 assessed as residual activity at 1 uM in presence of [33P]ATP by filter binding assay relative to control
[26] = target: Inhibitor of nuclear factor kappa-B kinase subunit beta (Homo sapiens) (UniProt O14920); test: Inhibition of human IKKb assessed as residual activity at 1 uM in presence of [33P]ATP by filter binding assay relative to control
[27] = species: Homo sapiens; test: Inhibition of human PKA assessed as residual activity at 1 uM in presence of [33P]ATP by filter binding assay relative to control
[28] = target: Mitogen-activated protein kinase 1 (Homo sapiens) (UniProt P28482); test: Inhibition of human ERK2 assessed as residual activity at 1 uM in presence of [33P]ATP by filter binding assay relative to control
[29] = target: T1, Casein kinase II subunit alpha; test: Inhibition of ARC-1504 binding to CK2alpha (unknown origin) (1 to 335 residues) measured after 15 mins by fluorescence anisotropic method
[30] = target: Calcium/calmodulin-dependent protein kinase type 1 (Homo sapiens) (UniProt Q14012); test: Inhibition of human CAMK1 assessed as residual activity at 1 uM in presence of [33P]ATP by filter binding assay relative to control
Chain of Calcium/calmodulin-dependent protein kinase type 1 (Homo sapiens) (Q14012 whole entry, looked up): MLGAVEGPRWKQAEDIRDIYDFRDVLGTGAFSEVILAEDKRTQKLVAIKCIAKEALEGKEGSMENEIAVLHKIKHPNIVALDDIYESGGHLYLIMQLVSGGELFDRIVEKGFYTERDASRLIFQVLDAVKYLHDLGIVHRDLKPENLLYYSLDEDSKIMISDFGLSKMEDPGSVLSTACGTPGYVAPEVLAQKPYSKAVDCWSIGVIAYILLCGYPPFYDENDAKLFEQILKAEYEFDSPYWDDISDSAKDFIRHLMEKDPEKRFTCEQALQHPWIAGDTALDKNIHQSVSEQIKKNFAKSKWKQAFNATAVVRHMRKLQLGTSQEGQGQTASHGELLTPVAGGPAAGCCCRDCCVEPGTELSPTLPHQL

T1 sequence (P68400 whole entry, the tested form may be a part, canonical isoform): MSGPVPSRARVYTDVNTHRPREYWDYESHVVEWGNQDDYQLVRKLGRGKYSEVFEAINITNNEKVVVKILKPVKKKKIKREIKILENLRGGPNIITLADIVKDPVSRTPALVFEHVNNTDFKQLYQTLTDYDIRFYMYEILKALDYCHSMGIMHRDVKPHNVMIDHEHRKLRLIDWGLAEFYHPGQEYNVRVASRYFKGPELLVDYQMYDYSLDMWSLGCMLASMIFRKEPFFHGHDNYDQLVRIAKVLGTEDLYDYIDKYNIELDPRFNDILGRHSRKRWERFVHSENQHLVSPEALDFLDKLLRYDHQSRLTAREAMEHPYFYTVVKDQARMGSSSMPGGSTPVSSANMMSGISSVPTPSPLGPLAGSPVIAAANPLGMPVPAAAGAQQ
Chain of Ribosomal protein S6 kinase alpha-1 (Homo sapiens) (Q15418 whole entry): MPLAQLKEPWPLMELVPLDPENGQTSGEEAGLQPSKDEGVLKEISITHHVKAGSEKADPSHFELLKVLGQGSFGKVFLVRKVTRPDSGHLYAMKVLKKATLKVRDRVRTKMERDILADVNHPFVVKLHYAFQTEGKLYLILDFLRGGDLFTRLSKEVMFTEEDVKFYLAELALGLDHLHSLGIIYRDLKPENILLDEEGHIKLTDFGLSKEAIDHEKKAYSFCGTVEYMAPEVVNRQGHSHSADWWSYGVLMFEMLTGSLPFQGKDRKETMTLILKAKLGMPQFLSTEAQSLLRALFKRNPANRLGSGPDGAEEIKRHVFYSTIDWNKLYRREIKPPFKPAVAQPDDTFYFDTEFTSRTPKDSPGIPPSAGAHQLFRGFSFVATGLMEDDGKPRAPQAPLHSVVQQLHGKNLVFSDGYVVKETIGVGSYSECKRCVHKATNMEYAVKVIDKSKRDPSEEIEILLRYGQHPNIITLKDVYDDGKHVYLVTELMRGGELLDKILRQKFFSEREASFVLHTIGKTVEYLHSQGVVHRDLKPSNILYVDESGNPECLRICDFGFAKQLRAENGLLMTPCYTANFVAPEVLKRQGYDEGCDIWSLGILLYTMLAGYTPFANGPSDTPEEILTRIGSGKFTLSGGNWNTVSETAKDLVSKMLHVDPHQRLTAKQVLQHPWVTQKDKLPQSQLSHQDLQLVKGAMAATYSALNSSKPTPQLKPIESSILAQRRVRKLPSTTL
Chain of Tau-tubulin kinase 2 (Homo sapiens) (Q6IQ55 whole entry, the tested form may be a part): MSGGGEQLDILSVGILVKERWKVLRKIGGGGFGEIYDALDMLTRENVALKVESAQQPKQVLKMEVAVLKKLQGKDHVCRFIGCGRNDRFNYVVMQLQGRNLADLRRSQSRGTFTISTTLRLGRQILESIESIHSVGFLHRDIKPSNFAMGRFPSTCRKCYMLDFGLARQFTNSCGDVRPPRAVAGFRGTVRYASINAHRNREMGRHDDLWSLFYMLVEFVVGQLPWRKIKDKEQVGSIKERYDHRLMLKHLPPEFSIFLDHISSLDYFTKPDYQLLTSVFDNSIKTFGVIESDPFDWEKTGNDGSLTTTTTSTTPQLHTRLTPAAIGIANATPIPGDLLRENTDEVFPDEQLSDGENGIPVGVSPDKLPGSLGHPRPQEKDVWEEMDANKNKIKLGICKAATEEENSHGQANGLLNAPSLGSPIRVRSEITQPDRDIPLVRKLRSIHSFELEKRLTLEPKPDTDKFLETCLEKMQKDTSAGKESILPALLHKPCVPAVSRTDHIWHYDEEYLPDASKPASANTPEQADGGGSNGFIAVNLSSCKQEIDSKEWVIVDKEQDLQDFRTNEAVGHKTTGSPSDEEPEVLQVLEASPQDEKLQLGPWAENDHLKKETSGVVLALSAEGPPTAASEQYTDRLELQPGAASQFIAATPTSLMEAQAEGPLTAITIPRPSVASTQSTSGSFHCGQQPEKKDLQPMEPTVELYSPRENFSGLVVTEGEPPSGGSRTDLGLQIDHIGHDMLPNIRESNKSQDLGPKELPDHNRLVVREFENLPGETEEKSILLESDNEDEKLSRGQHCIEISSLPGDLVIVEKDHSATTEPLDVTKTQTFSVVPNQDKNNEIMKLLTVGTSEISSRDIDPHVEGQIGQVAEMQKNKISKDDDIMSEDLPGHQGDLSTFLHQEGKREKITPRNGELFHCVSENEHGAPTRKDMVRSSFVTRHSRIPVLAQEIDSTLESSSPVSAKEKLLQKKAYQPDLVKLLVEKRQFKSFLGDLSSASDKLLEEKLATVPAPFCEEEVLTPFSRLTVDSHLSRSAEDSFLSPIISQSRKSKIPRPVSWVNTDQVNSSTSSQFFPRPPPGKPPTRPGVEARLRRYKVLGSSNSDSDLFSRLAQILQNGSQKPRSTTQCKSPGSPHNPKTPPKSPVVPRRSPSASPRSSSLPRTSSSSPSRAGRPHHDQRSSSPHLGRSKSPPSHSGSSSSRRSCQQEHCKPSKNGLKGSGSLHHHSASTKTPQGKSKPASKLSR
Chain of Serine/threonine-protein kinase pim-2 (Homo sapiens) (Q9P1W9 whole entry, looked up): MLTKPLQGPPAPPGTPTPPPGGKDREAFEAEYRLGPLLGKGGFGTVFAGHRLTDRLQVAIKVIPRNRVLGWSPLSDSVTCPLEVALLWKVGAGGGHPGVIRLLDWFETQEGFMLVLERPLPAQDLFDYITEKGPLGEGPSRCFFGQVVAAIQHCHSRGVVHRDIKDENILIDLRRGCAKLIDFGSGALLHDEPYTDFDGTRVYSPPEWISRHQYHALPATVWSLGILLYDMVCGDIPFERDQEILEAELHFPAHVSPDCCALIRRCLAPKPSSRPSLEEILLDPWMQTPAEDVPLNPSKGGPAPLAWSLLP
Chain of Serine/threonine-protein kinase Chk1 (Homo sapiens) (O14757 whole entry): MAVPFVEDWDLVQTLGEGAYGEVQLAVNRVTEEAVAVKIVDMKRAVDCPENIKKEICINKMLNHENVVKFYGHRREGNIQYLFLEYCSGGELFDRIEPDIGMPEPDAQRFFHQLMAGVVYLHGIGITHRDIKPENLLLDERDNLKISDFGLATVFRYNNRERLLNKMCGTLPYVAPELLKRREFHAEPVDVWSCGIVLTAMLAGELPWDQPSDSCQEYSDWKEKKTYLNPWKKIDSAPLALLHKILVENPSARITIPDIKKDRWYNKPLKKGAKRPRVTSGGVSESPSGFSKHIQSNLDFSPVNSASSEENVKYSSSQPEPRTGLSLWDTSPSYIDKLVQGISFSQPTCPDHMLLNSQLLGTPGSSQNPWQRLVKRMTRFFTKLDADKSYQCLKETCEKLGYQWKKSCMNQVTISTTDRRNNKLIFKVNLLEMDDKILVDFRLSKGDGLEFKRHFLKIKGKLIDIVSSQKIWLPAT
Chain of MAP kinase-interacting serine/threonine-protein kinase 2 (Homo sapiens) (Q9HBH9 whole entry, looked up): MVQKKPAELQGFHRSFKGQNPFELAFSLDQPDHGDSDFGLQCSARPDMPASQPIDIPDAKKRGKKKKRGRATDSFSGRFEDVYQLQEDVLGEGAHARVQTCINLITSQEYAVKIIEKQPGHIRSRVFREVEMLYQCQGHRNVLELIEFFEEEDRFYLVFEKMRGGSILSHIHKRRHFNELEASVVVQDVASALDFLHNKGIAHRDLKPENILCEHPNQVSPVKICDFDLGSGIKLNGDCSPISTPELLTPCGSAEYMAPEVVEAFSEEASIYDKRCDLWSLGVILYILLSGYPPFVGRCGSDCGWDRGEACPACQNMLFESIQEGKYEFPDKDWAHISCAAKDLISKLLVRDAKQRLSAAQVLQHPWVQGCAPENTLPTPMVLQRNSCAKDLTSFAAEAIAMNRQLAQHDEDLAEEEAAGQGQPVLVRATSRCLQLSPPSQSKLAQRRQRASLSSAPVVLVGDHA
Chain of Casein kinase I isoform gamma-2 (Homo sapiens) (P78368 whole entry, looked up, canonical isoform): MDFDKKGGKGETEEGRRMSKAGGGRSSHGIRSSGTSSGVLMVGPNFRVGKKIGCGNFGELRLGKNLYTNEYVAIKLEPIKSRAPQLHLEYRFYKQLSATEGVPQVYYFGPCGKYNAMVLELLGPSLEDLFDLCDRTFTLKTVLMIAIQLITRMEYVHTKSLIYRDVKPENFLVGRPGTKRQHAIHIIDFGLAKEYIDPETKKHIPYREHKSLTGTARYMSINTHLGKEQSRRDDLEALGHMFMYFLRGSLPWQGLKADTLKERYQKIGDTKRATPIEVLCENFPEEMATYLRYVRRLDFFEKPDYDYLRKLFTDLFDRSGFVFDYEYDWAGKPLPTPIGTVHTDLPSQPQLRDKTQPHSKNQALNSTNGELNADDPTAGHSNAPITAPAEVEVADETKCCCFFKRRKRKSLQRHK
Chain of Testis-specific serine/threonine-protein kinase 1 (Homo sapiens) (Q9BXA7 whole entry): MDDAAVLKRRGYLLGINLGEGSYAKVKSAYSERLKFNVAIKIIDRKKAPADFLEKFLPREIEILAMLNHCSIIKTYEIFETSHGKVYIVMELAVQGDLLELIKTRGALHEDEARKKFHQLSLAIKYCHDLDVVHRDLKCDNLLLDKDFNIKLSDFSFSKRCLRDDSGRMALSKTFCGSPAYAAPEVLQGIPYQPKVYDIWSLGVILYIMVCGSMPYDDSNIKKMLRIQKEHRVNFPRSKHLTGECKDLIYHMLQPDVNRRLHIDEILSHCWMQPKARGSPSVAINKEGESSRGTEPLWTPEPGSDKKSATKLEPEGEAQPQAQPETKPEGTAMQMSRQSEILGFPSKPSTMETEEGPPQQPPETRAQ

NCCCC[C@H](NC(=O)[C@H](CC(=O)O)NC(=O)[C@H](CC(=O)O)NC(=O)[C@H](CC(=O)O)NC(=O)[C@H](CC(=O)O)NC(=O)[C@H](CC(=O)O)NC(=O)[C@H](CC(=O)O)NC(=O)CCCCCCCCOc1nc2cc(C(=O)O)ccc2c2cnccc12)C(=O)O (X1-DDDDDDK-OH)
Activity [1]: 84% | Activity [2]: 97% | Activity [3]: 110% | Activity [4]: 26% | Activity [5]: 67% | Activity [6]: 91% | Activity [7]: 58% | Activity [8]: 90% | Activity [9]: 87% | Activity [10]: 23% | Activity [11]: 100% | Activity [12]: 80% | Activity [13]: 85% | Activity [14]: 85% | Activity [15]: 89% | Activity [16]: 56% | Activity [17]: 39% | Activity [18]: 101% | pIC50 [19]: 8.40 | Activity [20]: 86% | Activity [21]: 98% | Activity [22]: 50% | Activity [23]: 10% | Activity [24]: 91% | Activity [25]: 79% | Activity [26]: 81% | Activity [27]: 94% | Activity [28]: 90% | pKd ([29]; read-out: Kd): 10.43 | Kd ([29]; read-out: pKd (converted)): 0.0316 nM | Activity [30]: 89%

Reference: ChEMBL document CHEMBL4049403, “Oligo-aspartic acid conjugates with benzo[c][2,6]naphthyridine-8-carboxylic acid scaffold as picomolar inhibitors of CK2” (Bioorg Med Chem, 2017)
